How the values were obtained:
[1] = tested on: mouse asthma model induced by OVA; assay: Mouse asthma model induced by OVA: inflammatory cells in bronchoalveolar lavage fluid; format: in vivo
Experimental: The efficacy of the compounds according to the present invention in a mouse asthma model induced by OVA could be assessed using the following method:
Test sample: the compound of Example 3 was weighed accurately, and dissolved in DMSO to prepare a solution at a concentration of 2 mg/mL.
30 female BALB/c mice were adaptively fed. After one week, 10 mice were randomly taken out and fed as a blank control group, and 20 mice were selected to establish the asthma model. The model mice were intraperitoneally injected with 0.2 mL of sensitizing solution for sensitization respectively on 0, 7 and 14 days. The sensitization solution contained 50 μg of OVA and 2 mg of Al(OH)3. The blank control group received an equivalent volume of physiological saline.
From day 21 to day 23 after sensitization, the mice in the model group and the administration group were subjected to nebulization stimulation with 5% OVA for 30 min, and the mice in the blank control group received nebulization with physiological saline for the same duration.
30 min before daily stimulation of the mice, 50 μl of physiological saline was administered endotracheally to mice in the blank control and model groups, and 50 μl of the corresponding drug was administered endotracheally to mice in the Example 3 compound group, once daily for 3 consecutive days.
After the airway hyperresponsiveness measurement, the mice were euthanized by cervical dislocation and fixed on a dissecting tray. The abdomens and thoracic cavities of the mice were opened, and the neck skin and excess tissues were excised to expose the mouse trachea. A small incision was made on the transverse axis of the trachea with small scissors, a pre-prepared 1 mL syringe needle was inserted therein, and the needle was fixed with surgical thread. 0.5 mL of pre-cooled phosphate-buffer solution (PBS) was aspirated with a 1 ml syringe and slowly injected into the lungs of the mice, followed by slow withdrawal. Each mouse was lavaged once, and a total of about 0.4 mL of lavage fluid was collected. The number of inflammatory cells in the bronchoalveolar lavage fluid was measured by a cell counter.
Statistical analysis was conducted using SPSS software, Measurement data were expressed as mean±standard deviation. One Way ANOVA was used for inter-group comparisons, LSD test was used for those with homogeneous variance, and Dunnett-t test was used for those with heterogeneous variance. Differences were statistically significant with P<0.05.

TYK2 JH1 kinase = target: T1, TYK2 JH1 kinase (Homo sapiens, UniProt P29597); assay: TYK2 JH1 enzyme assay in vitro (TR-FRET); format: biochemical
T1 sequence (P29597 897-1176 limits assumed): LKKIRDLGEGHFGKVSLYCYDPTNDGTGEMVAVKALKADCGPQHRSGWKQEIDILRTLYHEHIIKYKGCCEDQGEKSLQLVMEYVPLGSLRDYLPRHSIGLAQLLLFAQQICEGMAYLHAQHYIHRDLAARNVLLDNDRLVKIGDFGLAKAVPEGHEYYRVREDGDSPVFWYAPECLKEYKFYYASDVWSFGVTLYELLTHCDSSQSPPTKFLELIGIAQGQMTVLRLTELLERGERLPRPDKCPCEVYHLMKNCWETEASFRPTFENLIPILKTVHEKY

SD rats = assay: Four-week repeat-dose toxicity study in rats; format: in vivo; details: rat, 28 days, 2% cream 500 mg bid topical, 100 mg/kg
Experimental: Each group contained 10 animals, with an equal number of males and females.
The treatment lasted for four consecutive weeks (28 days).
• Daily clinical observation and body weight measurement; • After the last administration, rats were fasted for more than 16 h, anesthetized on the next day, and blood was collected from abdominal aorta. Tests such as hematology (EDTA-2K anticoagulation), blood biochemistry (serum), coagulation function (separated plasma with sodium citrate anticoagulation) and the like were respectively carried out; • After euthanization of the animals, the tissue organs were dissected and observed in general, and organ weights and coefficients (heart, liver, spleen, kidney, thymus) were determined; • The skin and lung tissues of the administration site were taken for HE staining to observe the changes in epidermal thickness, dermal inflammatory cells and pulmonary lesions.

JAK1 JH2 pseudokinase = JAK1 JH2 pseudokinase (Homo sapiens, UniProt P23458); assay: JAK1 JH2 enzyme binding assay in vitro (TR-FRET); details: read-out: JAK 1 JH2 IC50
Chain of JAK1 JH2 pseudokinase (P23458 583-855 limits assumed): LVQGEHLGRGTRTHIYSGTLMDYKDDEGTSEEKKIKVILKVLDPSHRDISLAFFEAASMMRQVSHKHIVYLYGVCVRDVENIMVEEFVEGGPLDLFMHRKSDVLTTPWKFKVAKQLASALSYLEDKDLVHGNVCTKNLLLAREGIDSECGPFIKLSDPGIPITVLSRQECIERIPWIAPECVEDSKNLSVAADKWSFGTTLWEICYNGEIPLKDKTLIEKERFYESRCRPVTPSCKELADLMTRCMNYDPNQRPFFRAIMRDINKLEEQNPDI
Experimental: Instrumentation: Envision microplate reader (PerkinElmer), Echo (LABCYTE)
Method: in this experiment, the inhibitory effects of compounds on JAK1 JH2 pseudokinase was tested using time-resolved fluorescence resonance energy transfer (TR-FRET) method.
Procedure: compounds were prepared into 10 mM stock solutions using DMSO, which were further diluted into compound dilutions with different concentration gradients in DMSO, and the compound dilutions with 200× final concentration were transferred to a 384-well assay plate using an Echo instrument. The preparation of the following 1× assay working solution: HEPES pH7.5 at a final concentration of 20 mM, MgCl2 at a final concentration of 10 mM, Brij-35 at a final concentration of 0.015%, DTT at a final concentration of 2 mM, BSA at a final concentration of 50 ug/mL. JAK1 JH2 pseudokinase with 3× final concentration, Tb antibody and Tracer were prepared using their respective 1× working solution. 5 uL of JAK1 JH2 pseudokinase was added to a 384-well assay plate, and centrifuged at 1000 rpm for 30 s. 5 uL of Tb antibody was added to the 384-well assay plate, and centrifuged at 1000 rpm for 30 s. 5 uL of Tracer was added to the 384-well assay plate, and centrifuged at 1000 rpm for 30 s. Incubation was performed at room temperature for 60 min, and then at 4° C. overnight. Finally, the 495 nm/520 nm fluorescence signal ratio was measured using the Envision microplate reader (PerkinElmer).
Data Analysis: XLfit, a software developed by IDBS and integrated into the Microsoft Excel environment, was used to process and analyze the test data. […] Thereafter, the concentration and corresponding inhibition rate data were imported into the XLfit software, and the Dose Response One Site 205 model within the software was employed to fit the inhibition rate-concentration curve by four-parameter method, and the IC50 value of the compound was calculated.

[2] = 2 mg/mL, 50 μL endotracheally, once daily for 3 days

[2H]C([2H])([2H])NC(=O)c1nnc(NC(=O)C2CC2)cc1Nc1cccc(C(=O)Nc2cccc(C)c2)c1OC [Example 3]
Number of inflammatory cells: Leukocyte [1, 2]: 1,241.7 ± 618.1 ×10^3 | Number of inflammatory cells: Lymphocyte [1, 2]: 791.7 ± 524.9 ×10^3 | Number of inflammatory cells: Monocyte [1, 2]: 58.3 ± 37.0 ×10^3 | Number of inflammatory cells: Neutrophil [1, 2]: 391.7 ± 206.3 ×10^3 | Effect on number of inflammatory cells (white blood cells, lymphocytes) compared with the model group ([1]; pre-administration before stimulation): significantly reduce the number of inflammatory cells | IC50 (TYK2 JH1 kinase): > 10000 nM | Effects on general state, body weight, organ coefficient, skin and pulmonary pathology, and other hematological, coagulation and blood biochemical indicators (SD rats): no significant effects | Hematology Gran (SD rats): 1.7 ± 1.0 ×10^9/L | Hematology Lymph (SD rats): 6.4 ± 2.7 ×10^9/L | Hematology Mono (SD rats): 0.2 ± 0.1 ×10^9/L | Hematology PLT (SD rats): 1001.8 ± 408.1 ×10^9/L | IC50 (JAK1 JH2 pseudokinase): 9.74 nM

— patent publication US20260098017A1, “NOVEL AROMATIC RING DERIVATIVE CONTAINING AMIDE SUBSTITUTION AND USE THEREOF” (TIANJIN PHARMACEUTICAL BIOTECHNOLOGY CO., LTD., priority 2022, published 2026)
